{"source": "patent US12077503B2", "about": "“Substituted cyclic amides and their use as herbicides” (FMC CORPORATION, priority 2015, dated 2024)", "format_in_all_cases": "in vivo", "key": {"[1]": {"tested_on": "barley, spring (spring barley, Hordeum vulgare)", "assay": "Test D preemergence", "settings": "scale 0 to 100", "procedure,_shortened": "(§1)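 Test chemicals, formulated in a non-phytotoxic solvent blend including surfactant, are applied preemergence to seeded silt loam soil. Response is judged visually against controls after approximately 21 d in a controlled environment, on a scale where 0 is no effect and 100 is complete control.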"}, "[2]": {"tested_on": "field poppy (Papaver rhoeas)", "assay": "Test D preemergence", "settings": "scale 0 to 100", "procedure,_shortened": "as §1"}, "[3]": {"tested_on": "oilseed rape (Brassica napus)", "assay": "Test D preemergence", "settings": "scale 0 to 100", "procedure,_shortened": "as §1"}, "[4]": {"tested_on": "wheat, spring (spring wheat, Triticum aestivum)", "assay": "Test D preemergence", "settings": "scale 0 to 100", "procedure,_shortened": "as §1"}, "[5]": {"tested_on": "oat, wild (wild oat, Avena fatua)", "assay": "Test D preemergence", "settings": "scale 0 to 100", "procedure,_shortened": "as §1"}, "[6]": {"tested_on": "field violet (Viola arvensis)", "assay": "Test D preemergence", "settings": "scale 0 to 100", "procedure,_shortened": "as §1"}, "[7]": {"tested_on": "deadnettle (henbit deadnettle, Lamium amplexicaule)", "assay": "Test D preemergence", "settings": "scale 0 to 100", "procedure,_shortened": "as §1"}, "[8]": {"tested_on": "windgrass (Apera spica-venti)", "assay": "Test D preemergence", "settings": "scale 0 to 100", "procedure,_shortened": "as §1"}, "[9]": {"tested_on": "canarygrass (littleseed canarygrass, Phalaris minor)", "assay": "Test D preemergence", "settings": "scale 0 to 100", "procedure,_shortened": "as §1"}, "[10]": {"tested_on": "bromegrass, downy (downy bromegrass, Bromus tectorum)", "assay": "Test D preemergence", "settings": "scale 0 to 100", "procedure,_shortened": "as §1"}, "[11]": {"tested_on": "lambsquarters (Chenopodium album)", "assay": "Test D preemergence", "settings": "scale 0 to 100", "procedure,_shortened": "as §1"}, "[12]": {"tested_on": "barley, winter (winter barley Hordeum vulgare)", "assay": "Test D preemergence", "settings": "scale 0 to 100", "procedure,_shortened": "as §1"}, "[13]": {"tested_on": "bluegrass (annual bluegrass, Poa annua)", "assay": "Test D preemergence", "settings": "scale 0 to 100", "procedure,_shortened": "as §1"}, "[14]": {"tested_on": "blackgrass (Alopecurus myosuroides)", "assay": "Test D preemergence", "settings": "scale 0 to 100", "procedure,_shortened": "as §1"}, "[15]": {"tested_on": "chamomile (scentless chamomile, Matricaria inodora)", "assay": "Test D preemergence", "settings": "scale 0 to 100", "procedure,_shortened": "as §1"}, "[16]": {"tested_on": "barnyardgrass (Echinochloa crus-galli)", "assay": "Test C flooded paddy test", "settings": "Flood, 0 is no effect, 100 is complete control", "procedure,_shortened": "(§2)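 Plants grown to the 2-leaf stage in pots flooded to 3 cm above soil; compounds applied directly into the paddy water, depth held throughout. After 13 to 15 d in greenhouse, injury visually rated against untreated controls on a 0–100 scale (0 no effect, 100 complete control).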"}, "[17]": {"tested_on": "ducksalad (Heteranthera limosa)", "assay": "Test C flooded paddy test", "settings": "Flood, 0 is no effect, 100 is complete control", "procedure,_shortened": "as §2"}, "[18]": {"tested_on": "sedge, umbrella (small-flower umbrella sedge, Cyperus difformis)", "assay": "Test C flooded paddy test", "settings": "Flood, 0 is no effect, 100 is complete control", "procedure,_shortened": "as §2"}, "rice (Oryza sativa)": {"tested_on": "rice (Oryza sativa)", "assay": "Test C flooded paddy test", "settings": "Flood, 0 is no effect, 100 is complete control", "procedure,_shortened": "as §2"}}}
{"smiles": "CN1CC(c2cccc(C(F)(F)F)c2)C(C(=O)Nc2ccccc2S(C)(=O)=O)C1=O", "note": "(stereo not drawn) [Compound 637]", "values": [{"measurement": "Plant response rating: Barley, Spring", "setting": "[1]; 31 g ai/ha", "result": 0}, {"measurement": "Plant response rating: Barley, Spring", "setting": "[1]; 62 g ai/ha", "result": 20}, {"measurement": "Plant response rating: Barley, Spring", "setting": "[1]; 125 g ai/ha", "result": 40}, {"measurement": "Plant response rating: Barley, Spring", "setting": "[1]; 250 g ai/ha", "result": 70}, {"measurement": "Plant response rating: Field Poppy", "setting": "[2]; 31 g ai/ha", "result": 100}, {"measurement": "Plant response rating: Field Poppy", "setting": "[2]; 62 g ai/ha", "result": 100}, {"measurement": "Plant response rating: Field Poppy", "setting": "[2]; 125 g ai/ha", "result": 100}, {"measurement": "Plant response rating: Field Poppy", "setting": "[2]; 250 g ai/ha", "result": 100}, {"measurement": "Plant response rating: Oilseed Rape", "setting": "[3]; 31 g ai/ha", "result": 0}, {"measurement": "Plant response rating: Oilseed Rape", "setting": "[3]; 62 g ai/ha", "result": 40}, {"measurement": "Plant response rating: Oilseed Rape", "setting": "[3]; 125 g ai/ha", "result": 40}, {"measurement": "Plant response rating: Oilseed Rape", "setting": "[3]; 250 g ai/ha", "result": 65}, {"measurement": "Plant response rating: Wheat, Spring", "setting": "[4]; 31 g ai/ha", "result": 5}, {"measurement": "Plant response rating: Wheat, Spring", "setting": "[4]; 62 g ai/ha", "result": 30}, {"measurement": "Plant response rating: Wheat, Spring", "setting": "[4]; 125 g ai/ha", "result": 80}, {"measurement": "Plant response rating: Wheat, Spring", "setting": "[4]; 250 g ai/ha", "result": 70}, {"measurement": "Plant response rating: Oat, Wild", "setting": "[5]; 31 g ai/ha", "result": 20}, {"measurement": "Plant response rating: Oat, Wild", "setting": "[5]; 62 g ai/ha", "result": 30}, {"measurement": "Plant response rating: Oat, Wild", "setting": "[5]; 125 g ai/ha", "result": 75}, {"measurement": "Plant response rating: Oat, Wild", "setting": "[5]; 250 g ai/ha", "result": 85}, {"measurement": "Plant response rating: Field Violet", "setting": "[6]; 31 g ai/ha", "result": 0}, {"measurement": "Plant response rating: Field Violet", "setting": "[6]; 62 g ai/ha", "result": 0}, {"measurement": "Plant response rating: Field Violet", "setting": "[6]; 125 g ai/ha", "result": 0}, {"measurement": "Plant response rating: Field Violet", "setting": "[6]; 250 g ai/ha", "result": 0}, {"measurement": "Plant response rating: Deadnettle", "setting": "[7]; 31 g ai/ha", "result": 0}, {"measurement": "Plant response rating: Deadnettle", "setting": "[7]; 62 g ai/ha", "result": 0}, {"measurement": "Plant response rating: Deadnettle", "setting": "[7]; 125 g ai/ha", "result": 25}, {"measurement": "Plant response rating: Deadnettle", "setting": "[7]; 250 g ai/ha", "result": 65}, {"measurement": "Plant response rating: Windgrass", "setting": "[8]; 31 g ai/ha", "result": 10}, {"measurement": "Plant response rating: Windgrass", "setting": "[8]; 62 g ai/ha", "result": 25}, {"measurement": "Plant response rating: Windgrass", "setting": "[8]; 125 g ai/ha", "result": 85}, {"measurement": "Plant response rating: Windgrass", "setting": "[8]; 250 g ai/ha", "result": 95}, {"measurement": "Plant response rating: Canarygrass", "setting": "[9]; 31 g ai/ha", "result": 0}, {"measurement": "Plant response rating: Canarygrass", "setting": "[9]; 62 g ai/ha", "result": 0}, {"measurement": "Plant response rating: Canarygrass", "setting": "[9]; 125 g ai/ha", "result": 50}, {"measurement": "Plant response rating: Canarygrass", "setting": "[9]; 250 g ai/ha", "result": 70}, {"measurement": "Plant response rating: Bromegrass, Downy", "setting": "[10]; 31 g ai/ha", "result": 0}, {"measurement": "Plant response rating: Bromegrass, Downy", "setting": "[10]; 62 g ai/ha", "result": 10}, {"measurement": "Plant response rating: Bromegrass, Downy", "setting": "[10]; 125 g ai/ha", "result": 25}, {"measurement": "Plant response rating: Bromegrass, Downy", "setting": "[10]; 250 g ai/ha", "result": 40}, {"measurement": "Plant response rating: Lambsquarters", "setting": "[11]; 31 g ai/ha", "result": 50}, {"measurement": "Plant response rating: Lambsquarters", "setting": "[11]; 62 g ai/ha", "result": 60}, {"measurement": "Plant response rating: Lambsquarters", "setting": "[11]; 125 g ai/ha", "result": 40}, {"measurement": "Plant response rating: Lambsquarters", "setting": "[11]; 250 g ai/ha", "result": 75}, {"measurement": "Plant response rating: Barley, Winter", "setting": "[12]; 31 g ai/ha", "result": 0}, {"measurement": "Plant response rating: Barley, Winter", "setting": "[12]; 62 g ai/ha", "result": 0}, {"measurement": "Plant response rating: Barley, Winter", "setting": "[12]; 125 g ai/ha", "result": 50}, {"measurement": "Plant response rating: Barley, Winter", "setting": "[12]; 250 g ai/ha", "result": 60}, {"measurement": "Plant response rating: Bluegrass", "setting": "[13]; 31 g ai/ha", "result": 5}, {"measurement": "Plant response rating: Bluegrass", "setting": "[13]; 62 g ai/ha", "result": 25}, {"measurement": "Plant response rating: Bluegrass", "setting": "[13]; 125 g ai/ha", "result": 75}, {"measurement": "Plant response rating: Bluegrass", "setting": "[13]; 250 g ai/ha", "result": 100}, {"measurement": "Plant response rating: Blackgrass", "setting": "[14]; 31 g ai/ha", "result": 10}, {"measurement": "Plant response rating: Blackgrass", "setting": "[14]; 62 g ai/ha", "result": 10}, {"measurement": "Plant response rating: Blackgrass", "setting": "[14]; 125 g ai/ha", "result": 45}, {"measurement": "Plant response rating: Blackgrass", "setting": "[14]; 250 g ai/ha", "result": 50}, {"measurement": "Plant response rating: Chamomile", "setting": "[15]; 31 g ai/ha", "result": 0}, {"measurement": "Plant response rating: Chamomile", "setting": "[15]; 125 g ai/ha", "result": 90}, {"measurement": "Plant response rating: Chamomile", "setting": "[15]; 250 g ai/ha", "result": 90}, {"measurement": "Plant response rating (scale of 0 to 100), Barnyardgrass", "setting": "[16]; 31 g ai/ha", "result": 35}, {"measurement": "Plant response rating (scale of 0 to 100), Barnyardgrass", "setting": "[16]; 62 g ai/ha", "result": 40}, {"measurement": "Plant response rating (scale of 0 to 100), Barnyardgrass", "setting": "[16]; 125 g ai/ha", "result": 60}, {"measurement": "Plant response rating (scale of 0 to 100), Barnyardgrass", "setting": "[16]; 250 g ai/ha", "result": 75}, {"measurement": "Plant response rating (scale of 0 to 100), Ducksalad", "setting": "[17]; 31 g ai/ha", "result": 30}, {"measurement": "Plant response rating (scale of 0 to 100), Ducksalad", "setting": "[17]; 62 g ai/ha", "result": 45}, {"measurement": "Plant response rating (scale of 0 to 100), Ducksalad", "setting": "[17]; 125 g ai/ha", "result": 70}, {"measurement": "Plant response rating (scale of 0 to 100), Ducksalad", "setting": "[17]; 250 g ai/ha", "result": 90}, {"measurement": "Plant response rating (scale of 0 to 100), Sedge, Umbrella", "setting": "[18]; 31 g ai/ha", "result": 0}, {"measurement": "Plant response rating (scale of 0 to 100), Sedge, Umbrella", "setting": "[18]; 62 g ai/ha", "result": 0}, {"measurement": "Plant response rating (scale of 0 to 100), Sedge, Umbrella", "setting": "[18]; 125 g ai/ha", "result": 0}, {"measurement": "Plant response rating (scale of 0 to 100), Sedge, Umbrella", "setting": "[18]; 250 g ai/ha", "result": 0}, {"measurement": "Plant response rating (scale of 0 to 100), Rice", "setting": "rice (Oryza sativa); 31 g ai/ha", "result": 15}, {"measurement": "Plant response rating (scale of 0 to 100), Rice", "setting": "rice (Oryza sativa); 62 g ai/ha", "result": 15}, {"measurement": "Plant response rating (scale of 0 to 100), Rice", "setting": "rice (Oryza sativa); 125 g ai/ha", "result": 15}, {"measurement": "Plant response rating (scale of 0 to 100), Rice", "setting": "rice (Oryza sativa); 250 g ai/ha", "result": 45}]}
